In ChEMBL document CHEMBL1201862, “PubChem BioAssay data set” (2004):
The source made the active and inactive calls.

What was measured:
Cytochrome P450 2D6 = Cytochrome P450 2D6 (Homo sapiens, UniProt P10635);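 further: CYP2D6 member of a cytochrome P450 panel assay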
[1] = target: Melanin-concentrating hormone receptor 1 (Homo sapiens, UniProt Q99705); test: Fluorescence-based counterscreen for antagonists of the G-protein coupled receptor 7 (GPR7): cell-based high throughput dose response assay to identify antagonists of the melanin-concentrating hormone receptor 1 (MCHR1).; format: functional
Chain of Melanin-concentrating hormone receptor 1 (Q99705 whole entry): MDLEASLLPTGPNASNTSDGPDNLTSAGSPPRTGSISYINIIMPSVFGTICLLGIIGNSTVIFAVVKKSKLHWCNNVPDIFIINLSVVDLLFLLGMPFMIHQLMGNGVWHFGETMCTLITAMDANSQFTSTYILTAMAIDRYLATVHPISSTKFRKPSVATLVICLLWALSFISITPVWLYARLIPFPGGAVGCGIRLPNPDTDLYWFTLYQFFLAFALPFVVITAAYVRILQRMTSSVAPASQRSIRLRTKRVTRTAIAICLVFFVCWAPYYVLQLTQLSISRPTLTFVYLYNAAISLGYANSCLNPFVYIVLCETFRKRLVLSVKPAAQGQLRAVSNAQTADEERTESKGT

[2] = target: T1, Eukaryotic translation initiation factor 2-alpha kinase 3 (Homo sapiens, UniProt Q9NZJ5); test: Counterscreen assay for PERK inhibitors: Dose response cell-based high throughput screening assay to measure inhibition of PERK at 6 hours. [Related pubchem assays: 1522, 1416 ]; format: functional
T1 sequence (Q9NZJ5 whole entry): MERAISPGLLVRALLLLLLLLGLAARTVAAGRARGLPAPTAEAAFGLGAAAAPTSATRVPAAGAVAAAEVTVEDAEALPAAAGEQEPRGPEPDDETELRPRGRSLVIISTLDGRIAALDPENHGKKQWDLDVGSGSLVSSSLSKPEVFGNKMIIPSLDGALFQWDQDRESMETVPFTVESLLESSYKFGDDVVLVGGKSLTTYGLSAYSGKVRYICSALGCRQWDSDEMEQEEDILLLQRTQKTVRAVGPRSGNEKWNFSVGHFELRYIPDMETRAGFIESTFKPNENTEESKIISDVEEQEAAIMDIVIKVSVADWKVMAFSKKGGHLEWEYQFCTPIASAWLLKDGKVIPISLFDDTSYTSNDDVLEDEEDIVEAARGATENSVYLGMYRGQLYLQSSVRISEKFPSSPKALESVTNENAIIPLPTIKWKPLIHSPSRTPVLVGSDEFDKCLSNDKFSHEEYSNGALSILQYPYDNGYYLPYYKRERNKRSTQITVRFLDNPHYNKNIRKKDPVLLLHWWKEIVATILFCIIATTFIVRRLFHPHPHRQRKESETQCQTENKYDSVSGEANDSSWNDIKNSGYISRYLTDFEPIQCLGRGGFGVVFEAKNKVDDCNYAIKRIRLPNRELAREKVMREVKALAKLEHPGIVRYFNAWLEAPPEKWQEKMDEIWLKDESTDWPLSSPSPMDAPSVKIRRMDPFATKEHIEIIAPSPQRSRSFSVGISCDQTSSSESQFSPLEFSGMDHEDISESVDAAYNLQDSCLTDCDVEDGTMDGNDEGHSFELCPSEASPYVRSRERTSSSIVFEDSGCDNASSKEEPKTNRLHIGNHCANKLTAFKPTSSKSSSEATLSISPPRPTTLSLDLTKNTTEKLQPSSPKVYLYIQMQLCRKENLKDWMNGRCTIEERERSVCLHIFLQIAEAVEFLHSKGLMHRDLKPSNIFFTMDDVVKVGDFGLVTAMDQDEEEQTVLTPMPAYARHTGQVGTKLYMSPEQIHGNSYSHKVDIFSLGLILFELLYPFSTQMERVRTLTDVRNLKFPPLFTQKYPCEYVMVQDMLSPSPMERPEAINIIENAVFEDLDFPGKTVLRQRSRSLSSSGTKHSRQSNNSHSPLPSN

[3] = target: T1, Eukaryotic translation initiation factor 2-alpha kinase 3; test: Dose response cell-based high-throughput screening assay to measure PERK inhibition. [Related pubchem assays: 1416 ]; format: functional
HEK293 = test: Fluorescence-based counterscreen for potentiators or agonists of NPY-Y2: cell-based high-throughput dose response assay to identify inhibitors of cyclic nucleotide gated ion channel (CNGC) activity. In this assay, the parental HEK293 cell line transfected with a cyclic-nucleotide gated ion channel (CNGC)-based cAMP sensor is used to measure inhibition of isoproterenol-induced CNGC activity by test compound.; format: functional; conditions: Homo sapiens;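 further: stimulus is 1 µM isoproterenol at EC100 plus PDE inhibitor Ro 20-1724 at 25 µM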
[4] = target: T2, Neuropeptide Y receptor type 1 (Homo sapiens, UniProt P25929); test: Fluorescence-based counterscreen for agonists of NPY-Y2: cell-based high-throughput dose response assay for agonists of NPY-Y1.; format: functional
T2 sequence (P25929 whole entry): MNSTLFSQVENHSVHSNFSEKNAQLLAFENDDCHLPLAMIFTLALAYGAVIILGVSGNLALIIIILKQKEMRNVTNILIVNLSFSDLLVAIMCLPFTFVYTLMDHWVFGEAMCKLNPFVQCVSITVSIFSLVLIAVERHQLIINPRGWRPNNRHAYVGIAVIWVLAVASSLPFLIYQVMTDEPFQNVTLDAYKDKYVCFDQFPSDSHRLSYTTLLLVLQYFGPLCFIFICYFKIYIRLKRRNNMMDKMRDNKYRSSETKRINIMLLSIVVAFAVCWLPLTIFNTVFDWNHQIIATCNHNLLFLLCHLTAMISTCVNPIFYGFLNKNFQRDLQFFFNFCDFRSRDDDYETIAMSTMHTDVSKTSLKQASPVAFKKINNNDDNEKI

[5] = target: T3, Neuropeptide Y receptor type 2 (Homo sapiens, UniProt P49146); test: Fluorescence-based cell-based high-throughput dose response assay for agonists of NPY-Y2. [Related pubchem assays: 1703 (Screening assay (CNGC inhibitors).), 1359 (Screening assay (NPY-Y2 potentiators or agonists).), 1304 (Screening assay (NPY-Y1 potentiators or agonists).), 1710 (Screening assay (NPY-Y2 agonists).), 1791 (Summary AID.)]; format: functional
T3 sequence (P49146 whole entry): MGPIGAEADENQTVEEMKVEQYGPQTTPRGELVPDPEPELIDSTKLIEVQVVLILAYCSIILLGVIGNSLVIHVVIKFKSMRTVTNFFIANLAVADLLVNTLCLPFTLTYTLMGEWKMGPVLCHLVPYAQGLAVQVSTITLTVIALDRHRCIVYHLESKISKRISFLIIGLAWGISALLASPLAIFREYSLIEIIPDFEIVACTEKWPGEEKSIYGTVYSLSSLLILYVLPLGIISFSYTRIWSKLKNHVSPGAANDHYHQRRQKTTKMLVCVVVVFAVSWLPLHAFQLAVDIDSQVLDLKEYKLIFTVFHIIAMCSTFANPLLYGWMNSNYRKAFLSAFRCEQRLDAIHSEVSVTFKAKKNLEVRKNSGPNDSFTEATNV

[6] = target: Mothers against decapentaplegic homolog 3 (Homo sapiens, UniProt P84022); test: blockers of Smad3 complex formation in lysate – cell lysate, secondary confirmation, chemiluminescent ELISA, HEK293 lysate, dose response (AID 1058); format: functional
Chain of Mothers against decapentaplegic homolog 3 (P84022 whole entry): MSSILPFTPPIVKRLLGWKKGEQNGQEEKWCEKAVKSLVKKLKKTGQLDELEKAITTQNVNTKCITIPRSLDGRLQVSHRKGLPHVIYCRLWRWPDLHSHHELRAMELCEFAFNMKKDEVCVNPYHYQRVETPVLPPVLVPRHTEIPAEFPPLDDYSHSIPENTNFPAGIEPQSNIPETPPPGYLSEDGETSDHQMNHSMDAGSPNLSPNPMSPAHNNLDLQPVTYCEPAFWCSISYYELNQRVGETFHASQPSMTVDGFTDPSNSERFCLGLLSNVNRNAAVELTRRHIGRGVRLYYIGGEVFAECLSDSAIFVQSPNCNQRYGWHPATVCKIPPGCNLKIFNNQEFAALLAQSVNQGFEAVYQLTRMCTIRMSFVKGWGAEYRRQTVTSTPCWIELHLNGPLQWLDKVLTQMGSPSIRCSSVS

Staphylococcus aureus = test: Inhibitors of Bacterial Quorum Sensing Structure Activity Relationship (SAR) Analysis: Dose Response Assay. [Related pubchem assays: 700, 527 ]; format: functional, organism-based

Chain of Cytochrome P450 2D6 (P10635 whole entry): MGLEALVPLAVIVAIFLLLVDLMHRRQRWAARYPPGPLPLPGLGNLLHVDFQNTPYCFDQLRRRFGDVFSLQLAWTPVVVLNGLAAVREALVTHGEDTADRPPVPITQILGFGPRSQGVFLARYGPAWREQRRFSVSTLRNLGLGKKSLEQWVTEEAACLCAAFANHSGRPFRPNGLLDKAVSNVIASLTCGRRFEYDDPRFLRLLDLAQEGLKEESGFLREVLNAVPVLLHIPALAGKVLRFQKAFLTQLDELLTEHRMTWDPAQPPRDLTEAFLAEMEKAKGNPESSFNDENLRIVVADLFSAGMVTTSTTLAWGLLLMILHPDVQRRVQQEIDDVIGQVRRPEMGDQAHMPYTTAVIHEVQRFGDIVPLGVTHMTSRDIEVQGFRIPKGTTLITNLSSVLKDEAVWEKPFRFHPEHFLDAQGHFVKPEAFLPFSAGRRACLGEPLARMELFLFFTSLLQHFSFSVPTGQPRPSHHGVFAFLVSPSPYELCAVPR

COC(=O)[C@@]1(Cc2ccc(F)cc2)[C@H]2c3cc(C(=O)N(C)C)n(Cc4ccccc4)c3C[C@H]2CN1C(=O)c1ccccc1
AC50 (Cytochrome P450 2D6): 20 µM (inconclusive) | IC50 [1]: 11.1 µM (not active)

CCN1CC(=O)Nc2cc(S(=O)(=O)N3CCOCC3)ccc21
EC50 [2]: > 55.7 µM (not active) | EC50 [3]: > 55.7 µM (not active)

CC1=NC(=O)C(N=Nc2ccccc2C(=O)O)N1c1ccccc1 (centres undefined)
EC50 (HEK293): > 3.94 µM (active) | EC50 [4]: 9.92 µM (active) | EC50 [5]: 16.9 µM (not active)

COc1cccc(C(c2cc3c(cc2O)OCO3)N2CCOCC2)c1O (centres undefined)
IC50 [6]: > 40 µM (not active)

N#Cc1c(NC(=O)CN2C(=O)c3ccccc3C2=O)oc(-c2ccccc2)c1-c1ccccc1
IC50 (Staphylococcus aureus): 1.99 µM (active)
